Assay results published in patent US20220107246A1, “NONCOVALENT TAGS AND RELATED METHODS FOR CYTOSOLIC DELIVERY OF MACROBIOMOLECULES” (University of Washington, priority 2019, published 2022).
Entries after “also recorded” stand apart in the source; their conditions may differ.

Assays:
actin in HeLa cells = assay: F-actin labeling in live cells using LifeAct-GFP; assay type: cell-based
Protocol: Lastly, two applications that should have a major impact on biology and medicine, immunofluorescence in live cells, and delivery of therapeutic proteins inside cells were assessed for compatibility with the disclosed tag approach for cytosolic delivery. Immunofluorescence, one of the most common techniques in biological and medical research, is currently used to profile cell surface markers on live cells (e.g., many flow cytometry studies) missing all the key cell signaling nodes inside cells. Alternatively, immunofluorescence is currently used on fixed cells, missing the temporal dynamics of active cell signaling that determines cell fate, behavior, communications, and growth. […] Briefly, HeLa cells were incubated with cholesterol-tagged LifeAct-GFP or LifeAct-GFP alone and the cells were imaged. […] To confirm the labeling specificity, cells were pretreated with cytochalasin-D before incubating with LifeAct-Tag.
HeLa cells were seeded onto glass-bottom dishes. After one-day of culturing, cells were incubated with fresh media containing tagged LifeAct-GFP for 4 h at 37° C., followed by washing and counterstaining Hoechst 33258. The cells were imaged on an Olympus fluorescence microscope equipped with a true-color CCD, Qcolor 5.

[1] = test system: peptidylprolyl isomerase B (PPIB) mRNA; assay: siRNA delivery and real time RT PCR (PPIB mRNA knockdown in PC-3 cells); assay type: cell-based; conditions: siRNA complexed with tag, real-time PCR
Protocol: A small library of 14 chemicals that represent various lipophilicities while sharing a carboxylic acid group for easy conjugation with ethidium was screened. These hydrophobic compounds were chemically linked to ethidium via a hexacarbon (C6) linker. The resulting small-molecule tags were mixed with a model siRNA sequence against peptidylprolyl isomerase B (PPIB) and tested on a prostate tumor cell line, PC-3, for RNAi.
PC-3 cells were seeded in 24-well plate at density of 5,000 cells per well. […] Total RNA was isolated from the cell monolayer using Trizol reagent (Invitrogen) according to the manufacturer's protocol. 200 nanograms of RNA was converted to cDNA using random hexamer primer and MultiScribe Reverse Transcriptase Reagent (Applied Biosystems, Inc., Branchburg, N.J.). 100 nanograms of cDNA was amplified by SensiFast SYBR kit (Bioline, Taunton, Mass.) on a Chromo4™ Real-Time system (Bio-Rad, Hercules, Calif.). The primers used for PPIB amplification were 5′-[…]-3′ (forward primer; SEQ ID NO:6) and 5′-[…]-3′ (reverse primer; SEQ ID NO:7). Primers for detection of 18s were 5′-[…]-3′ (forward primer; SEQ ID NO:8) and 5′-[…]-3′ (reverse primer; SEQ ID NO:9).

siRNA = assay: Intercalation into siRNA monitored by fluorescence activation; assay type: binding; conditions: compared to tag 5
Protocol: To test this new concept of cytosolic delivery, a conjugation-free methodology was investigated that incorporated small chemical tags to transform siRNA sufficiently hydrophobic, membrane-permeant, and self-deliverable. […] For a proof of concept, a number of existing oligonucleotide intercalators were tested, due to their potential to non-covalently attach the lipophilic moiety to siRNA. Although DNA intercalating dyes are well-studied and broadly available, selection of dsRNA intercalators is limited. […] DNA intercalating dyes apply a stretching force thus may or may not work on siRNA. Eight DNA intercalating dyes (molecular structures shown in FIG. 7) were evaluated utilizing a very convenient feature of these dyes, fluorescence activation upon intercalation into oligonucleotides. […] Therefore, ethidium was used in the following studies.
After 5-minute incubation, the mixture was diluted to 100 μL and the fluorescence was measured with the microplate reader. The fluorescence increment (J. B. Le Pecq, et al., DNA polyintercalating drugs: DNA binding of diacridine derivatives, Proc Natl Acad Sci USA 72(8) (1975) 2915-9; B. Gaugain, et al., DNA Bifunctional intercalators. 2. Fluorescence properties and DNA binding interaction of an ethidium homodimer and an acridine ethidium heterodimer, Biochemistry 17(24) (1978) 5078-88, each of which is incorporated herein by reference in its entirety), ΔIF, is the difference of fluorescence intensity of the tags in the presence or absence of siRNA.

HeLa cells = assay: Cellular delivery of tagged proteins, confocal microscopy; assay type: cell-based
Protocol: Purified Coomassie blue-cholesterol tag powder was reconstituted with ethanol/water (v/v: 4/1) to a concentration of 1.6 mM and stored at 4° C. as a stock. Before tagging, the concentration of all the protein solutions was diluted to 25 μM. […] The mixture was quickly mixed by pipetting. The mixture was incubated in a water bath (37° C.) for 8 min and sonicated in an ultrasonic water bath for 30 seconds. After another round of 8-min water bath incubation at 37° C., the protein was ready for delivery.
Cells were seeded on glass-bottom dishes (poly-D-lysine treated, MatTek Corp.) one day before the experiments. The cell monolayer was washed once with serum-free RPMI 1640 media and treated with 2 mL of RPMI 1640 media containing the tagged protein at a final concentration of 1 μM for 2 h. In the end, the cells were counter-stained with Hoechst 33342 and Alexa Fluor® 594 labeled Wheat Germ Agglutinin (WGA-AF594), respectively. The cells were washed three times with RPMI 1640 and imaged on a Zeiss LSM 710 microscope.
To study the delivery effect at low temperature (4° C.), cell monolayers were pre-equilibrated with cold media (RPMI 1640) for 10 minutes at 4° C. and then treated with the cold solution of tagged protein for 3 h. The cells were washed with cold media and imaged immediately.

Row | Molecule | RNAi effect (PPIB mRNA knockdown), tag screening [1] | also measured
1 | Coomassie blue, dicholest carbamyl 3-(3-propyl dimethyl amino)propyl sulfonamide [cholesterol tag] |  | imaging quality of delivered LifeAct-GFP (actin in HeLa cells; same LifeAct-GFP concentration): significantly better contrast
2 | 3,8-bis(tert-butyloxycarbonylamino)-5-(6-caprylcarbonylamino-hexyl)-6-phenylphenanthridine [tag 7] | no or low effect | 
3 | C=C1[C@@H](C)[C@H]2[C@H](Cc3ccccc3)NC(=O)[C@]23[C@H](OC(C)=O)/C=C/[C@@](C)(O)C(=O)[C@@H](C)C/C=C/[C@H]3[C@@H]1O [cytochalasin-D, reference compound] |  | actin filament structure after pretreatment (actin in HeLa cells; cells pretreated before incubating with LifeAct-Tag): completely disrupted
4 | 3,8-bis(tert-butyloxycarbonylamino)-5-[6-(1,2-dipalmitin)-carboylamino-hexyl]-6-phenylphenanthridine [tag 14] | no RNAi effect | intercalation of tag into siRNA (fluorescence enhancement) (siRNA): minor fluorescence enhancement; also recorded: failed to intercalate into siRNA
5 | 3,8-bis(tert-butyloxycarbonylamino)-5-(6-cerotylcarbonylamino-hexyl)-6-phenylphenanthridine [tag 9] | failed to lower the PPIB mRNA level | intercalation of tag into siRNA (fluorescence enhancement) (siRNA): minor fluorescence enhancement; also recorded: failed to intercalate into siRNA
6 | lysozyme: protein, 15 kDa, fluorescently labeled cargo |  | intracellular fluorescence pattern of cholesterol-tagged protein (HeLa cells; HeLa cells, protein tagged with CB-cholesterol tag): diffused distribution while having a few punctate bright spots; intracellular fluorescence distribution (HeLa cells; tag:protein molar ratio 1:1): only punctate intracellular fluorescence distribution; intracellular fluorescence distribution (HeLa cells; tag:protein molar ratio 3:1): only punctate intracellular fluorescence distribution; intracellular fluorescence distribution (HeLa cells; tag:protein molar ratio 6:1): diffused fluorescence signal started to appear; intracellular fluorescence distribution (HeLa cells; tag:protein molar ratio 8:1): significant direct membrane permeation
7 | 3,8-bis(tert-butyloxycarbonylamino)-5-(6-L-argininylcarbonylamino-hexyl)-6-phenylphenanthridine [tag 4] | no or low effect | 
8 | 3,8-bis(tert-butyloxycarbonylamino)-5-(6-L-leucinylcarbonylamino-hexyl)-6-phenylphenanthridine [tag 2] | no or low effect | 
9 | 3,8-bis(tert-butyloxycarbonylamino)-5-(6-pentadecylcarbonylamino-hexyl)-6-phenylphenanthridine [tag 8] | no or low effect | 
10 | 3,8-bis(tert-butyloxycarbonylamino)-5-(6-stigmasterylcarbonylamino-hexyl)-6-phenylphenanthridine [tag 6] | significant RNAi effect | 
11 | 3,8-bis(tert-butyloxycarbonylamino)-5-(6-chloroquinecarboylamino-hexyl)-6-phenylphenanthridine [tag 13] | no or low effect | 
12 | 3,8-bis(tert-butyloxycarbonylamino)-5-(6-cholesterylcarbonylamino-hexyl)-6-phenylphenanthridine [tag 5] | significant RNAi effect | 
13 | 3,8-bis(tert-butyloxycarbonylamino)-5-(6-L-histinylcarbonylamino-hexyl)-6-phenylphenanthridine [tag 3] | no or low effect | 
